# In patent US9708349B2, “Borates for photoactivated chemical bleaching” (GENERAL ELECTRIC COMPANY, priority 2015, dated 2017):
# Test: Stability of solid borate on exposure to air (1HNMR)
smiles,measurement,value
"c1ccc(C[B-](c2ccccc2)(c2ccccc2)c2ccccc2)cc1 [MBB, monobenzyltriphenyl borate]",time to evidence of decomposition,< 10 min
